According to paper PMC10301603, “Potent and Selective Benzothiazole-Based Antimitotics with Improved Water Solubility: Design, Synthesis, and Evaluation as Novel Anticancer Agents” (Pharmaceutics, 2023):
≈ marks a conversion by molar mass, not a printed value. Where two headings read alike, the source gives them in different places.

Legend:
HEK-293 cells = assay: Cell growth inhibition assay (MTT), non-tumorigenic cells; format: cell-based, human; conditions: Homo sapiens, HEK293, 72 h after drug exposure, non-tumorigenic cell line
Experimental: (§1) The cell lines were obtained from ATTC (Manassas, VA, USA). HeLa (human cervix epithelioid carcinoma), MCF7 (human breast adenocarcinoma), HepG2 (human hepatocellular carcinoma), U87 MG (human glioblastoma), T98G (human glioblastoma), GL261 (murine glioma), LNCaP (human prostate cancer), PC-3 (human prostate cancer), and HEK-293 (human embryonic kidney) were grown in Dulbecco’s modified Eagle’s medium (DMEM, Gibco, Waltham, MA, USA), supplemented with 10% (v/v) heat-inactivated fetal bovine serum (HIFBS, Sigma-Aldrich, St. Louis, MO, USA)), 2 mM L-glutamine, 100 μg/mL streptomycin, and 100 units/mL penicillin (Gibco, Waltham, MA, USA) at 37 °C in saturated humidity atmosphere containing 95% air and 5% CO2. Cell line HT-29 (human colon carcinoma) was grown in Roswell Park Memorial Institute (RPMI) 1640 medium (Gibco, Whaltman, MA, USA) supplemented with 10% HIFBS, 100 μg/mL streptomycin, and 100 units/mL penicillin (Gibco, Whaltman, MA, USA) at 37 °C in humidified 95% air and 5% CO2 atmosphere. MycoAlert kit (Lonza, Norwest, Australia) was used to routinely check the presence of mycoplasma, and only mycoplasma-free cells were employed in the experiments.
(§2) Cells were plated in 96-well plates (100 µL/well) at the following concentrations: 30,000 cells/mL (HepG2, U87 MG, T98G, C6, LNCaP, PC3, and HT-29 cells) or 15,000 cells/mL (HeLa and MCF-7 cells). Previous experiments were performed to choose the optimal cell concentration (70–80% confluence) and avoid the formation of cell aggregates. Cells were incubated in complete DMEM or RPMI 1640 medium (see above) at 37 °C and 5% CO2 atmosphere for 24 h to allow for cell attachment to the plate. Then, every compound was added (10 µL/well) to a final concentration of 10 µM. Non-treated cells were used as negative controls. The antiproliferative activity of compounds was measured 72 h after the treatments using the MTT reagent (3-[4,5-dimethylthiazol-2-yl]-2,5-diphenyltetrazolium bromide), (MTT Thiazolyl Blue Tetrazolium Bromide, Sigma-Aldrich, St. Louis, MO, USA) dissolved in PBS at 5 mg/mL. Compounds showing antiproliferative effects at 10 µM were selected to determine their IC50 value. For that purpose, compounds were used at different concentrations ranging from 10^−10 to 10^−2 M. Measurements were performed in triplicate, and each experiment was repeated three times. The IC50 value was determined for every compound using Origin software (OriginLab, Washington, USA). To study the sensitivity to MDR efflux pumps of compounds, the IC50 values were determined by following the same procedure but in the presence of verapamil (final concentration of 10 µM).

bovine brain tubulin = assay: Tubulin polymerization inhibition (turbidimetry); format: biochemical; conditions: for % TPI: compounds tested at 10 µM, with respect to the negative control; for IC50: concentration inhibiting 50% of microtubular protein polymerization in vitro, read-out: TPI IC50; for Tubulin polymerization inhibition (in words): 10 µM
Experimental: Microtubular protein was isolated from calf brain following the modified Shelanski method, based on temperature-dependent assembly/disassembly of tubulin [45]. The protein was stored at −80 °C, and its concentration was determined using the Bradford method before each use. Tubulin polymerization, which occurs when heating a buffered tubulin sample from 4 °C to 37 °C, is accompanied by an increase in the absorbance (at 450 nm) of the sample that was monitored by a Helios α spectrophotometer. […] Then, the temperature was adjusted to 4 °C, and the temperature being shifted to 37 °C allowed for the assembly process of tubulin. The turbidity caused by tubulin polymerization was measured by the increased absorbance at 450 nm. The increase in absorbance obtained for the control sample (without the ligand), which we considered to be 100% tubulin polymerization (0% inhibition), compared with the increase in absorbance determined for the sample containing ligands yielded the degree of tubulin polymerization inhibition (TPI), which is expressed as a percentage value. For the compounds displaying TPI values over 50% at 10 µM, the IC50 value for TPI was calculated. Measurements were performed in triplicate in two independent experiments using microtubular protein from different preparations.

tumor cell lines = assay: Cell growth inhibition assay (MTT), summary statements over several cell lines; format: cell-based; conditions: read-out: antiproliferative IC50
Experimental: as §2

HT-29 cells [1] = assay: Cell growth inhibition (MTT) in the presence of 10 µM verapamil (sensitivity to MDR efflux pumps); format: cell-based, human; conditions: 10 µM verapamil (P-gp/MDR1 inhibitor)
Experimental: as §2

HeLa cells = assay: Cell growth inhibition assay (MTT); format: cell-based, human; conditions: Homo sapiens, HeLa, 72 h after drug exposure
Experimental: as §1, §2

HepG2 cells = assay: Cell growth inhibition assay (MTT); format: cell-based, human; conditions: Homo sapiens, HepG2, 72 h after drug exposure
Experimental: as §1, §2

PC-3 cells = assay: Cell growth inhibition assay (MTT); format: cell-based, human; conditions: Homo sapiens, PC-3, 72 h after drug exposure
Experimental: as §1, §2

HT-29 cells [2] = assay: Cell growth inhibition assay (MTT); format: cell-based, human; conditions: Homo sapiens, HT-29, 72 h after drug exposure
Experimental: as §1, §2

MCF7 cells = assay: Cell growth inhibition assay (MTT); format: cell-based, human; conditions: Homo sapiens, MCF7; MTT, 72 h after drug exposure
Experimental: as §1, §2

LNCaP cells = assay: Cell growth inhibition assay (MTT); format: cell-based, human; conditions: Homo sapiens, LNCaP, 72 h after drug exposure
Experimental: as §1, §2

T98G cells = assay: Cell growth inhibition assay (MTT); format: cell-based, human; conditions: Homo sapiens, T98G, 72 h after drug exposure
Experimental: as §1, §2

U87MG cells = assay: Cell growth inhibition assay (MTT); format: cell-based, human; conditions: Homo sapiens, U-87 MG; MTT, 72 h after drug exposure
Experimental: as §1, §2

[3] = Aqueous solubility, shake-flask method; format: physicochemical; conditions: pH 7.0 buffer, pH 7, aqueous buffer, thermodynamic from solid, shaking flask, buffered media at pH 7.0, mean of three
Experimental: The aqueous solubility of compounds was measured in a Helios Alfa Spectrophotometer. Calibration lines at the maximum wavelength of absorbance were determined for each compound. Then, following the shake-flask method, a suspension of 5 mg of each compound in 500 µL in pH 7.0 buffer was stirred for 72 h at room temperature. The mixture was then filtrated over a […] filter to remove the insoluble fraction. The concentration of the compound in the resulting saturated solution was determined via UV absorbance measurement and interpolation in the calibration line. The aqueous solubility values are given as the average of three independent measurements.

GL261 cells = assay: Cell growth inhibition assay (MTT); format: cell-based, murine; conditions: Mus musculus, GL261, 72 h after drug exposure
Experimental: as §1, §2

[4] = the rest of the tumor cell lines (other than HeLa, HepG2, MCF7, U87MG)

| IC50 (bovine brain tubulin) [µM] | IC50 (tumor cell lines; the rest of the cell lines (other than glioblastoma U87MG and GL261)) [µM] | IC50 (HT-29 cells [1]) [µM] | IC50 (HeLa cells) [µM] | IC50 (HepG2 cells) [µM] | IC50 (PC-3 cells) [µM] | IC50 (HT-29 cells [2]) [µM] | IC50 (MCF7 cells) [µM] | IC50 (LNCaP cells) [µM] | IC50 (U87MG cells) [µM] | solubility at 72 h [3] [µg/mL] | IC50 (tumor cell lines; HeLa, HepG2, MCF7, and U87MG) [µM] | IC50 (tumor cell lines; [4]) [µM] | IC50 (tumor cell lines; glioblastoma cell lines) [µM] | Compound | IC50 (HEK-293 cells) [µM] | % TPI (bovine brain tubulin) [%] | IC50 (T98G cells) [µM] | IC50 (GL261 cells) [µM] | Tubulin polymerization inhibition (in words) (bovine brain tubulin) |
| --- | --- | --- | --- | --- | --- | --- | --- | --- | --- | --- | --- | --- | --- | --- | --- | --- | --- | --- | --- |
| 4.2 | 0.1 to 0.3 | 0.315 | 0.275 | 0.198 | 0.33 | 0.303 | 0.251 | 0.247 | 0.062 | 98 (≈ 286 µM) |  |  |  | CCNC(=O)N(Cc1ccccn1)c1nc2ccc(OC)cc2s1 [Compound 7, 3-ethyl-1-(6-methoxybenzo[d]thiazol-2-yl)-1-(pyridin-2-ylmethyl)urea] | 8.81 | 87 | 0.125 | 0.096 |  |
| > 10 |  | 3.27 | 1.45 | 1.23 | 3.31 | 3.39 | 1.74 | 2.01 | 1.51 | 55 (≈ 203 µM) | ~1 | 2 to 3 |  | COc1ccc2nc(NCc3ccncc3)sc2c1 [Compound 3, 6-methoxy-N-(pyridin-4-ylmethyl)benzo[d]thiazol-2-amine] | > 10 |  | 2.27 | 2.03 |  |
| > 10 |  | 3.47 | 1.78 | 2.4 | 2.11 | 3.51 | 1.53 | 1.52 | 1.61 | 48 (≈ 177 µM) | ~1 | 2 to 3 |  | COc1ccc2nc(NCc3ccccn3)sc2c1 [Compound 1, 6-methoxy-N-(pyridin-2-ylmethyl)benzo[d]thiazol-2-amine] | > 10 |  | 2.4 | 2.17 |  |
|  |  | > 10 | > 10 | > 10 | > 10 | > 10 | > 10 | > 10 | 135 |  |  |  | > 100 | Cn1nnc2c(C(N)=O)ncn2c1=O [TMZ, temozolomide, reference compound] | > 10 |  | 241 | 179 |  |
| > 10 |  | > 10 | > 10 | > 10 | > 10 | > 10 | > 10 | > 10 | > 10 | 165 (≈ 546 µM) |  |  |  | COc1ccc2nc(N(C=O)Cc3[nH]cnc3C)sc2c1 [Compound 16, N-(6-methoxybenzo[d]thiazol-2-yl)-N-((4-methyl-1H-imidazol-5-yl)methyl)formamide] | > 10 | 0 | > 10 | > 10 | not able to inhibit tubulin polymerization |
| > 10 |  | > 10 | 4.36 | 5.78 | > 10 | > 10 | 6.31 | 5.97 | 8.31 | 5 (≈ 18.5 µM) |  |  |  | COc1ccc2nc(NCc3ccccc3)sc2c1 [Compound 5, N-benzyl-6-methoxybenzo[d]thiazol-2-amine] | > 10 | 0 | > 10 | 7.25 |  |
| > 10 |  | > 10 | 3.4 | 5.55 | > 10 | > 10 | 5.02 | 4.01 | 5.27 | 12 (≈ 40.2 µM) |  |  |  | COc1ccc2nc(N(C=O)Cc3ccccc3)sc2c1 [Compound 17, N-benzyl-N-(6-methoxybenzo[d]thiazol-2-yl)formamide] | > 10 | 4 | > 10 | 6.41 |  |
| > 10 |  | > 10 | > 10 | > 10 | > 10 | > 10 | > 10 | > 10 | > 10 | 171 (≈ 540 µM) |  |  |  | COc1ccc2nc(N(Cc3[nH]cnc3C)C(C)=O)sc2c1 [Compound 22, N-(6-methoxybenzo[d]thiazol-2-yl)-N-((4-methyl-1H-imidazol-5-yl)methyl)acetamide] | > 10 | 0 | > 10 | > 10 | not able to inhibit tubulin polymerization |
| > 10 |  | 2.55 | 1.22 | 1.49 | 2.63 | 2.23 | 1.97 | 1.81 | 1.27 | 90 (≈ 287 µM) |  |  |  | COc1ccc2nc(N(Cc3ccncc3)C(C)=O)sc2c1 [Compound 21, N-(6-methoxybenzo[d]thiazol-2-yl)-N-(pyridin-4-ylmethyl)acetamide] | > 10 | 41 | 2.3 | 1.59 |  |
| > 10 |  | > 10 | > 10 | > 10 | > 10 | > 10 | > 10 | > 10 | > 10 | 178 (≈ 515 µM) |  |  |  | CCNC(=O)N(Cc1[nH]cnc1C)c1nc2ccc(OC)cc2s1 [Compound 10, 3-ethyl-1-(6-methoxybenzo[d]thiazol-2-yl)-1-((4-methyl-1H-imidazol-5-yl)methyl)-urea] | > 10 | 0 | > 10 | > 10 | not able to inhibit tubulin polymerization |
